The target in this assay is ATX (human His-tagged) (Homo sapiens (Human), UniProt Q13822). The assay is described as follows: Human ATX enzyme inhibition assay (fluorescence quenching, MR121 substrate). The format is biochemical. Particulars: 30 nM ATX, 1 μM MR121 substrate, 30° C., pH 8.0. Summed up:
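Tris-HCl buffer at pH 8.0 contained 140 mM NaCl, 5 mM KCl, 1 mM each CaCl2 and MgCl2, and 0.01% Triton X-100. The MR121 substrate (1 μM final) was incubated with enzyme for 15 min at 30 °C, and activity was read by fluorescence quenching.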

pIC50: −log10 of the molar value.

As for `O=C(OCc1cc(Cl)cc(Cl)c1)N1CC[C@@H]2CN(C(=O)c3ccc4[nH]nnc4c3)C[C@@H]2C1` [Example 10A, (3aR,7aS)-2-(1H-Benzotriazole-5-carbonyl)-octahydro-pyrrolo[3,4-c]pyridine-5-carboxylic acid 3,5-dichloro-benzyl ester], the pIC50 is 7.44.

Molecule `O=C(/C=C/c1ccc(F)cc1)N1CC[C@@H]2CN(C(=O)c3ccc4[nH]nnc4c3)C[C@@H]2CC1` [Example 15.14] had a pIC50 of 7.21.

In the case of `O=C(OCC1C2CCCCC21)N1C[C@@H]2CN(C(=O)c3ccc4[nH]nnc4c3)C[C@@H]2C1` (stereo partly drawn) [Example 4.13, (3aS,6aR)-5-(1H-benzotriazole-5-carbonyl)-hexahydro-pyrrolo[3,4-c]pyrrole-2-carboxylic acid bicyclo[4.1.0]hept-7-ylmethyl ester], the pIC50 was 5.54.

With `O=C(OCc1cc(Cl)cc(Cl)c1)N1CC[C@@H]2CN(C(=O)c3ccc4[nH]c(=O)oc4c3)C[C@H]2C1` (relative stereo) [Example 2, trans-3,5-Dichlorobenzyl 2-(2-oxo-2,3-dihydrobenzo[d]oxazole-6-carbonyl)hexahydro-1H-pyrrolo[3,4-c]pyridine-5(6H)-carboxylate], the pIC50 is 8.00.

The molecule `O=C(c1ccc2[nH]nnc2c1)N1CC[C@@H]2CN(c3nnc(-c4ccc(Cl)cc4)o3)C[C@H]2C1` (relative stereo) [Example 14, (1H-Benzotriazol-5-yl)-{trans-2-[5-(4-chloro-phenyl)-[1,3,4]oxadiazol-2-yl]-octahydro-pyrrolo[3,4-c]pyridin-5-yl}-methanone] had a pIC50 of 6.03.

`O=C(OCc1cc(Cl)cc(Cl)c1)N1C[C@H]2CCN(C(=O)c3ccc4[nH]nnc4c3)C[C@@H]2C1` (relative stereo) [Example 12B, trans-3,5-dichlorobenzyl 5-(1H-benzo[d][1,2,3]triazole-5-carbonyl)-hexahydro-lH-pyrrolo[3,4-c]pyridine-2(3H)-carboxylate] had a pIC50 of 8.30.

`CN(Cc1cnn[nH]1)C(=O)N1C[C@H]2CCN(C(=O)/C=C/c3ccc(OC(F)(F)F)c(F)c3)CC[C@H]2C1` [Example 15.61, (3aR,8aS)-N-((1H-1,2,3-triazol-5-yl)methyl)-6-((E)-3-(3-fluoro-4-(trifluoromethoxy)phenyl)-acryloyl)-N-methyloctahydro-pyrrolo[3,4-d]azepine-2(1H)-carboxamide] gave a pIC50 of 7.27.

Turning to `N#Cc1ccc(OCC(=O)N2C[C@@H]3CN(C(=O)c4ccc5[nH]nnc5c4)C[C@H]3C2)cc1` [Example 15.94], the pIC50 was 5.99.

Turning to `COc1ccc(/C=C/C(=O)N2CC[C@@H]3CN(C(=O)c4ccc5[nH]nnc5c4)C[C@@H]3CC2)c(C(F)(F)F)c1` [Example 1.28, (E)-1-((3aR,8aS)-2-(1H-benzo[d][1,2,3]triazole-5-carbonyl)octahydropyrrolo[3,4-d]azepin-6(7H)-yl)-3-(4-methoxy-2-(trifluoromethyl)phenyl)prop-2-en-1-one], the pIC50 is 8.22.

Molecule `O=C(CCc1ccc(OC(F)(F)F)cc1)N1C[C@H]2CN(C(=O)c3ccc4[nH]nnc4c3)C[C@@H]2C1` [Example 19.12, 1-[(3aS,6aS)-5-(1H-benzotriazole-5-carbonyl)-hexahydro-pyrrolo[3,4-c]pyrrol-2-yl]-3-(4-trifluoromethoxy-phenyl)-propan-1-one] gave a pIC50 of 8.00.

The molecule `O=C(OCc1cc(Cl)cc(Cl)c1)N1CC[C@@H]2CN(C(=O)c3ccc4[nH]nnc4c3)C[C@H]2C1` (single isomer, unassigned) [Example 11A, trans-3,5-dichlorobenzyl 2-(1H-benzo[d][1,2,3]triazole-5-carbonyl)-hexahydro-1H-pyrrolo[3,4-c]pyridine-5(6H)-carboxylate] showed a pIC50 of 7.66.

Regarding `O=C(/C=C/c1ccc(Cl)c(Cl)c1)N1CC[C@@H]2CN(C(=O)c3ccc4[nH]nnc4c3)C[C@@H]2CC1` [Example 15.31], the pIC50 was 7.42.

Molecule `O=C(/C=C/c1ccc(OC(F)(F)F)cc1)N1C[C@H]2CCN(C(=O)c3ccc4[nH]nnc4c3)C[C@@H]2C1` (single isomer, unassigned) [Example 15.25] gave a pIC50 of 7.36.

Turning to `O=C(OCc1cccc(OC(F)(F)F)c1)N1C[C@@H]2CN(C(=O)c3ccc4[nH]nnc4c3)C[C@@H]2C1` [Example 4.25, (3aS,6aR)-5-(1H-benzotriazole-5-carbonyl)-hexahydro-pyrrolo[3,4-c]pyrrole-2-carboxylic acid 3-trifluoromethoxy-benzyl ester], the pIC50 is 6.91.

Consider `O=C(CCc1cc(Cl)cc(Cl)c1)N1C[C@@H]2CN(C(=O)c3ccc4[nH]nnc4c3)C[C@@H]2C1` [Example 1.01, 1-((3aR,6aS)-5-(1H-benzo[d][1,2,3]triazole-5-carbonyl)hexahydropyrrolo[3,4-c]pyrrol-2(1H)-yl)-3-(3,5-dichlorophenyl)propan-1-one], for which the pIC50 was 7.46.

Turning to `Cc1cc(OCC(=O)N2CC[C@@H]3CN(C(=O)c4ccc5[nH]nnc5c4)C[C@@H]3CC2)c(C(C)C)cc1Cl` [Example 1.35, 1-[(3aS,8aR)-2-(1H-benzotriazole-5-carbonyl)-octahydro-pyrrolo[3,4-d]azepin-6-yl]-2-(4-chloro-2-isopropyl-5-methyl-phenoxy)-ethanone], the pIC50 is 8.00.

Regarding `O=C(/C=C/c1ccc(OC(F)(F)F)cc1F)N1C[C@@H]2CN(C(=O)c3ccc4[nH]nnc4c3)C[C@H]2C1` [Example 15.40, (E)-1-((3aR,6aR)-5-(1H-benzo[d][1,2,3]triazole-5-carbonyl)hexahydro-pyrrolo[3,4-c]pyrrol-2(1H)-yl)-3-(2-fluoro-4-(trifluoromethoxy)phenyl)-prop-2-en-1-one], the pIC50 is 8.30.

As to `O=C(/C=C/c1ccc(OC(F)(F)F)cc1)N1CC[C@@H]2CN(C(=O)c3ccc4[nH]nnc4c3)C[C@@H]2CC1` [Example 15.70], the pIC50 is 8.15.

As for `O=C(OCc1cc(Cl)cc(Cl)c1)N1C[C@@H]2CN(C(=O)c3ccc4[nH]ncc4c3)C[C@@H]2C1` [Example 1.07, (3aR,6aS)-3,5-dichlorobenzyl 5-(1H-indazole-5-carbonyl)hexahydropyrrolo[3,4-c]pyrrole-2(1H)-carboxylate], the pIC50 is 5.99.

For the molecule `O=C(OCc1ccc(OC(F)(F)F)cc1)N1C[C@@H]2CN(C(=O)c3ccc4[nH]nnc4c3F)C[C@H]2C1` [Example 1.52, (3aS,6aS)-5-(4-fluoro-1H-benzotriazole-5-carbonyl)-hexahydro-pyrrolo[3,4-c]pyrrole-2-carboxylic acid 4-trifluoromethoxy-benzyl ester], the pIC50 is 7.80.

In turn, `O=C(c1ccc(-c2ccc(Cl)cc2)cc1)N1C[C@@H]2CN(C(=O)c3ccc4[nH]nnc4c3)C[C@H]2C1` [Example 19.02, (1H-benzotriazol-5-yl)-[(3aR,6aR)-5-(4′-chloro-biphenyl-4-carbonyl)-hexahydro-pyrrolo[3,4-c]pyrrol-2-yl]-methanone] showed a pIC50 of 8.15.

Regarding `O=C(c1ccc(-c2ccc(Cl)cc2)cc1)N1C[C@H]2CN(C(=O)c3ccc4[nH]nnc4c3)C[C@@H]2C1` (stereo in doubt) [Example 19.13, (1H-benzotriazol-5-yl)-[(3aS,6aS)-5-(4′-chloro-biphenyl-4-carbonyl)-hexahydro-pyrrolo[3,4-c]pyrrol-2-yl]-methanone], the pIC50 is 8.00.

Values taken from patent publication US10669268B2, “Bicyclic derivatives” (Hoffmann-La Roche Inc., priority 2012, dated 2020).
